Columns and labels:
calf thymus (CT) DNA = experiment: Thermal denaturation studies with duplex-form calf thymus DNA; type: binding; conditions: for ΔTm (° C.) after incubation at 37° C. for 0 h / ΔTm (° C.) after incubation at 37° C. for 18 h / ΔTm (° C.) after incubation at 37° C. for 36 h: [ANCD]/[DNA] molar ratio 1:5, CT-DNA 100 μM, ligand 20 μM, sodium phosphate buffer pH 7.00; for ΔTm (° C.) after incubation at 37° C. for 0 h: 0 h at 37° C.; for ΔTm (° C.) after incubation at 37° C. for 18 h: 18 h at 37° C.; for ΔTm (° C.) after incubation at 37° C. for 36 h: 36 h at 37° C.; for Course of ΔTm over incubation at 0 hr, 18 hr and 36 hr: incubation at 37° C., [ANCD]/[DNA] 1:5
Protocol: Compounds were subjected to thermal denaturation studies with duplex-form calf thymus DNA (CT-DNA) using an adaptation of a reported procedure. Working solutions in aqueous buffer (10 mM NaH2PO4/Na2HPO4, 1 mM Na2EDTA, pH 7.00+/−0.01) containing CT-DNA (100 μM in phosphate) and the PBD (20 μM) were prepared by addition of concentrated ANCD solutions in DMSO to obtain a fixed [ANCD]/[DNA] molar ratio of 1:5. The DNA-ANCD solutions were incubated at 37° C. for 0, 18, and 36 h prior to analysis. Samples were monitored at 260 nm using a Beckman DU-7400 spectrophotometer fitted with high performance temperature controller, and heating was applied at 1° C. min^−1 in the 40-90° C. range. DNA helix coil transition temperatures (Tm) were obtained from the maxima in the (dA260)/dT derivative plots. Results are given as the mean+/−standard deviation from three determinations and are corrected for the effects of DMSO co-solvent using a linear correction term. Drug-induced alterations in DNA melting behaviour are given by: ΔTm=Tm (DNA+ANCD)−Tm (DNA alone), where the Tm value for the ANCD-free CT-DNA is 69.0+/−0.01.

[1] = system: HCT-116 cell line (colon cancer); experiment: In vitro cytotoxicity, HCT-116; type: cell-based; conditions: Homo sapiens; colon cancer HCT-116
Protocol: (§1) In vitro evaluation of cytotoxic activity: Compounds were evaluated for in vitro anticancer activity against sixty human tumour cells derived from nine cancer types (colon, prostate, oral, lung, cervix and breast cancer) as shown in (Table 1, 2 and 3) 8b, 8c, 8d, and 8e, were evaluated for in vitro anticancer activity against sixty human tumour cells derived from nine cancer types (leukemia, non-small-cell lung, colon, CNS, melanoma, ovarian, prostate, and breast cancer) as shown in (Table 2 and 3). For the compound, dose response curves for each cell line were measured at a minimum of five concentrations at 10 fold dilutions. […]
(§2) Each cancer type represents the average of six to nine different cancer cell lines. The compounds 8a, 8b, 8c, 8d, 8e and 8f were evaluated for in vitro anticancer activity against sixty human tumour cells derived from nine cancer types (leukemia, colon, prostate, renal melanoma CNS, lung, cervix and breast cancer) as shown in Table 3. […] Compounds 8b, 8c, 8d and 8e have been evaluated for their in vitro cytotoxicity in selected human cancer cell lines of colon (Colo205), lung (Hop-62), cervix (SiHa), prostate (DU145, PC3), oral (DWD, HT1080), and breast (MCF7, Zr-75-1) origin. […] The results are expressed as percent of cell growth determined relative to that of untreated control cells. […]

[2] = system: MCF-7 cell line (breast cancer); experiment: In vitro cytotoxicity, MCF-7; type: cell-based; conditions: Homo sapiens, MCF7; MCF-7, breast cancer cell panel; read-out: GI50
Protocol: as §1, §2

[3] = system: Ovarian cancer cell lines; experiment: In vitro cytotoxicity, ovarian panel; type: cell-based; conditions: Homo sapiens, average of six to nine different cancer cell lines, 48 h, SRB, read-out: Log GI50 (concentration in mol/L causing 50% growth inhibition) (converted)
Protocol: (§3) In vitro evaluation of cytotoxic activity: Compounds were evaluated for in vitro anticancer activity against sixty human tumour cells derived from nine cancer types (colon, prostate, oral, lung, cervix and breast cancer) as shown in (Table 1, 2 and 3) 8b, 8c, 8d, and 8e, were evaluated for in vitro anticancer activity against sixty human tumour cells derived from nine cancer types (leukemia, non-small-cell lung, colon, CNS, melanoma, ovarian, prostate, and breast cancer) as shown in (Table 2 and 3). For the compound, dose response curves for each cell line were measured at a minimum of five concentrations at 10 fold dilutions. A protocol of 48 h continuous drug exposure was used and a sulforhodamine B (SRB) protein assay was used to estimate cell viability or growth. The concentration causing 50% cell growth inhibition (GI50), total cell growth inhibition (TGI 0% growth) and 50% cell death (LC50, −50% growth) compared with the control was calculated. The mean graph midpoint values of log10 TGI and log10 LC50 as well as log10 GI50 for 8a, 8b, 8c, 8d, and 8e, are listed in (Table 2 and 3).
(§4) Each cancer type represents the average of six to nine different cancer cell lines. The compounds 8a, 8b, 8c, 8d, 8e and 8f were evaluated for in vitro anticancer activity against sixty human tumour cells derived from nine cancer types (leukemia, colon, prostate, renal melanoma CNS, lung, cervix and breast cancer) as shown in Table 3. Compounds 8b, 8c, 8d and 8e show promising cytotoxicity against some cancer cell lines (Table 2). Compounds 8b, 8c, 8d and 8e have been evaluated for their in vitro cytotoxicity in selected human cancer cell lines of colon (Colo205), lung (Hop-62), cervix (SiHa), prostate (DU145, PC3), oral (DWD, HT1080), and breast (MCF7, Zr-75-1) origin. A protocol of 48 h continuous drug exposure has been used and an […] has been used to estimate cell viability or growth. The results are expressed as percent of cell growth determined relative to that of untreated control cells. […] In the breast cancer panel, the growth of BT-549, MCF-7 cell lines are 10.3, and 17.6. In the prostate cancer panel, the growth of DU-145, PC-3 cell lines are 11.3, and 19.2. The GI50 values of compound In the CNS cancer panel, the growth of SF-539, SNB-75 cell lines are […]. […] In vitro cytotoxicity of compounds 8a, and 8b in selected cancer cell lines has been illustrated in Table 3. The average GI50 values for each cancer panel of compounds 8b, 8c, 8d and 8e have been illustrated in above Table 2 and 3

[4] = system: renal and prostate cancer panels; experiment: In vitro cytotoxicity, renal and prostate cancer panels; type: cell-based; conditions: Homo sapiens; range over renal and prostate cancer panels
Protocol: as §1, §2

CNS cancer cell lines = experiment: In vitro cytotoxicity, CNS panel; type: cell-based; conditions: Homo sapiens, average of six to nine different cancer cell lines, 48 h, SRB, read-out: Log GI50 (concentration in mol/L causing 50% growth inhibition) (converted)
Protocol: as §3, §4

[5] = system: T47D cell line (breast cancer); experiment: In vitro cytotoxicity, T47D; type: cell-based; conditions: Homo sapiens, breast cancer cell panel
Protocol: as §1, §2

[6] = system: CNS SF-295, SF-539, SNB-19 and SNB-75 cell lines; experiment: In vitro cytotoxicity, CNS cell lines SF-295, SF-539, SNB-19, SNB-75; type: cell-based; conditions: Homo sapiens; range over CNS SF-295, SF-539, SNB-19 and SNB-75
Protocol: as §1, §2

Renal cancer cell lines = experiment: In vitro cytotoxicity, renal panel; type: cell-based; conditions: Homo sapiens, average of six to nine different cancer cell lines, 48 h, SRB, read-out: Log GI50 (concentration in mol/L causing 50% growth inhibition) (converted)
Protocol: as §3, §4

[7] = system: Leukemia cancer cell lines; experiment: In vitro cytotoxicity, leukemia panel; type: cell-based; conditions: Homo sapiens, average of six to nine different cancer cell lines, 48 h, SRB, read-out: Log GI50 (concentration in mol/L causing 50% growth inhibition) (converted)
Protocol: as §3, §4

Colon cancer cell lines = experiment: In vitro cytotoxicity, colon panel; type: cell-based; conditions: Homo sapiens, average of six to nine different cancer cell lines, 48 h, SRB, read-out: Log GI50 (concentration in mol/L causing 50% growth inhibition) (converted)
Protocol: as §3, §4

[8] = system: KM12 cell line (colon cancer); experiment: In vitro cytotoxicity, KM12; type: cell-based; conditions: Homo sapiens
Protocol: as §1, §2

[9] = system: Nonsmall-cell-lung cancer cell lines; experiment: In vitro cytotoxicity, non-small-cell lung panel; type: cell-based; conditions: Homo sapiens, average of six to nine different cancer cell lines, 48 h, SRB, read-out: Log GI50 (concentration in mol/L causing 50% growth inhibition) (converted)
Protocol: as §3, §4

Breast cancer cell lines = experiment: In vitro cytotoxicity, breast panel; type: cell-based; conditions: Homo sapiens, average of six to nine different cancer cell lines, 48 h, SRB, read-out: Log GI50 (concentration in mol/L causing 50% growth inhibition) (converted)
Protocol: as §3, §4

[10] = system: Melanoma cancer cell lines; experiment: In vitro cytotoxicity, melanoma panel; type: cell-based; conditions: Homo sapiens, average of six to nine different cancer cell lines, 48 h, SRB, read-out: Log GI50 (concentration in mol/L causing 50% growth inhibition) (converted)
Protocol: as §3, §4

[11] = system: COLO 205 cell line (colon cancer); experiment: In vitro cytotoxicity, COLO 205; type: cell-based; conditions: Homo sapiens; colon cancer COLO 205
Protocol: as §1, §2

human tumour cell lines = experiment: In vitro anticancer activity against sixty human tumour cell lines (NCI, SRB assay); type: cell-based; conditions: for Log10LC50 mean graph midpoint (MG_MID): 50% cell death; for Log10LC50 mean graph midpoint (MG_MID) / Log10GI50 mean graph midpoint (MG_MID) / Log10TGI50 mean graph midpoint (MG_MID): 48 h continuous drug exposure, SRB assay; for Log10GI50 mean graph midpoint (MG_MID): 50% cell growth inhibition; for GI50: Homo sapiens; for antiproliferative activity: against most of the tested cell lines; for Log10TGI50 mean graph midpoint (MG_MID): total cell growth inhibition
Protocol: as §3, §4

[12] = system: Prostate cancer cell lines; experiment: In vitro cytotoxicity, prostate panel; type: cell-based; conditions: Homo sapiens, average of six to nine different cancer cell lines, 48 h, SRB, read-out: Log GI50 (concentration in mol/L causing 50% growth inhibition) (converted)
Protocol: as §3, §4

[13] = sixty cell lines in nine cell panels

SMILES	ΔTm (° C.) after incubation at 37° C. for 0 h (calf thymus (CT) DNA)	ΔTm (° C.) after incubation at 37° C. for 18 h (calf thymus (CT) DNA)	ΔTm (° C.) after incubation at 37° C. for 36 h (calf thymus (CT) DNA)	Course of ΔTm over incubation at 0 hr, 18 hr and 36 hr (calf thymus (CT) DNA)	GI50 [3]	GI50 (CNS cancer cell lines)	GI50 (Renal cancer cell lines)	GI50 [7]	GI50 (Colon cancer cell lines)	GI50 [9]	GI50 (Breast cancer cell lines)	GI50 [10]	Log10LC50 mean graph midpoint (MG_MID) (human tumour cell lines)	Log10GI50 mean graph midpoint (MG_MID) (human tumour cell lines)	GI50 (human tumour cell lines; [13])	antiproliferative activity (human tumour cell lines)	Log10TGI50 mean graph midpoint (MG_MID) (human tumour cell lines)	GI50 [12]	also measured
COc1cc(C(=O)Nc2ccc(S(=O)(=O)c3ccc(NC(=O)c4cc(OC)c(OCc5ccccc5)cc4N)cc3)cc2)c(N)cc1OCc1ccccc1 [Compound 8h, N1-4-[(4-[2-amino-4-(benzyloxy)-5-methoxybenzoyl]aminophenyl)sulfonyl]phenyl-2-amino-4-(benzyloxy)-5-methoxybenzamide]	1.5 °C	2.3 °C	2.4 °C	gradually increased	–	–	–	–	–	–	–	–	–	–	–	–	–	–	–
COc1cc(C(=O)N2CCN(c3ccccc3OC)CC2)c(NC(=O)c2cnccn2)cc1OCc1ccccc1 [Compound 8f, (4-(Benzyloxy)-5-methoxy-2-(pyrazine-2-carbamido)phenyl)(4-(2-methoxyphenyl)piperazin-1-yl)methanone]	1.3 °C	2.1 °C	3.0 °C	gradually increased	–	–	–	–	–	–	–	–	–	–	–	–	–	–	–
COc1cc2c(cc1O)N=CC1CCCN1C2=O (stereo not drawn) [DC-81, reference compound]	0.3 °C	0.7 °C	–	–	–	–	–	–	–	–	–	–	–	–	–	–	–	–	–
COc1cc(C(=O)N2CCN(c3ncnc4ccccc34)CC2)c(N)cc1OCc1ccccc1 [Compound 8d, [2-amino-4-(benzyloxy)-5-methoxyphenyl][4-(4-quinazolinyl)piperazino]methanone]	1.5 °C	1.9 °C	2.7 °C	gradually increased	11.7 µM	1.78 µM	5.5 µM	4.07 µM	5.13 µM	1.35 µM	7.08 µM	7.24 µM	−4.62	−5.62	< 20 µM	nanomolar to low micromolar concentrations	−5.62	7.24 µM	GI50 [1]: 16.3 µM; GI50 [2]: 12.6 µM; GI50 [4]: 1.16 to 32.4 µM; GI50 [5]: 13.2 µM; GI50 [6]: 11.8 to 24.2 µM; GI50 [8]: 14.6 µM; GI50 [11]: 11.2 µM
COc1cc(C(=O)NC2c3ccccc3-c3ccccc32)c(N)cc1OCc1ccccc1 [Compound 8e, N1-(9H-9-fluorenyl)-2-amino-4-(benzyloxy)-5-methoxybenzamide]	1.9 °C	2.3 °C	2.8 °C	gradually increased	10 µM	5.5 µM	15.1 µM	4.27 µM	1.7 µM	1.38 µM	≤ 0.01 µM	1.78 µM	−4.19	−6.47	< 20 µM	nanomolar to low micromolar concentrations	−6.06	0.355 µM	GI50 (human tumour cell lines; fifty-seven cell lines in nine cancer cell panels): < 10 µM
